Laboratory results taken from PMC8963254, “Effects of Lysine N-ζ-Methylation in Ultrashort Tetrabasic Lipopeptides (UTBLPs) on the Potentiation of Rifampicin, Novobiocin, and Niclosamide in Gram-Negative Bacteria” (Antibiotics, 2022).
In brackets after ≈: the same amount, converted by molar mass. Where two headings read alike, the source gives them in different places.

Key:
[1] = tested on: A. baumannii ATCC 17978; assay type: cell-based, Acinetobacter baumannii; details: ATCC 17978, 18 h
Procedure: (§1) The in vitro antibacterial activity of the UTBLPs was assessed against wild-type and clinically isolated bacterial strains. To obtain the MIC of the compounds, the microbroth dilution susceptibility assay was performed according to the Clinical and Laboratory Standards Institute (CLSI, Wayne, PA, USA) guidelines and as previously described. Briefly, the compounds at varying concentrations were incubated with bacterial inoculum (5 × 10^5 CFU/mL final concentration) at 37 °C for 18 h. Growth in the form of turbidity was confirmed using an EMax Plus microplate reader (Molecular Devices, San Jose, CA, USA) at 590 nm.

[2] = tested on: E. coli ATCC 25922; assay type: cell-based, Escherichia coli; details: ATCC 25922, 18 h
Procedure: as §1

[3] = tested on: MRSA ATCC 33592; assay type: cell-based, Staphylococcus aureus; details: ATCC 33592, 18 h
Procedure: as §1

[4] = tested on: S. aureus ATCC 29213; assay type: cell-based, Staphylococcus aureus; details: ATCC 29213, 18 h
Procedure: as §1

[5] = tested on: E. coli 94393; assay: microbe, parasite or virus in culture; assay type: cell-based, Escherichia coli; details: 94393, 18 h
Procedure: as §1

[6] = tested on: E. coli 94474; assay: microbe, parasite or virus in culture; assay type: cell-based, Escherichia coli; details: 94474, 18 h
Procedure: as §1

[7] = tested on: K. pneumoniae 113250; assay: microbe, parasite or virus in culture; assay type: cell-based, Klebsiella pneumoniae; details: 113250, 18 h
Procedure: as §1

[8] = tested on: MRSE 61589; assay type: cell-based, Staphylococcus epidermidis; details: 61589, 18 h
Procedure: as §1

[9] = tested on: MSSE 81388; assay type: cell-based, Staphylococcus epidermidis; details: 18 h
Procedure: as §1

[10] = tested on: A. baumannii 92247; assay type: cell-based, Acinetobacter baumannii; details: for MICUTBLP: UTBLP alone
Outline: (§2)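 Checkerboard synergy assay: antibiotic and OMP combined at varying concentrations with 5 × 10^5 CFU/mL inoculum (final), 37 °C, 18 h; growth read as turbidity at 590 nm. FICI = sum of FICs (MIC in combination / MIC alone); ≤0.5 synergistic, 0.5–4 additive, >4 antagonistic.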

[11] = tested on: A. baumannii AB027; assay type: cell-based, Acinetobacter baumannii; details: for MICUTBLP: UTBLP alone
Outline: as §2

[12] = tested on: E. coli 94393; assay type: cell-based, Escherichia coli; details: for MICUTBLP: UTBLP alone
Procedure: (§3) The synergy of the UTBLPs with various antibiotics was assessed using checkerboard assay as previously described. Briefly, the combination of antibiotic and OMP at varying concentrations were incubated with bacterial inoculum (5 × 10^5 CFU/mL final concentration) at 37 °C for 18 h. Growth in the form of turbidity was confirmed using an EMax Plus microplate reader (Molecular Devices, Union City, CA, USA) at 590 nm. Fractional inhibitory concentration index (FICI) was used to evaluate the interaction between the antibiotic and the OMP. FICI is the sum of the FIC of the antibiotic and the FIC of the OMP. The FIC value is calculated by dividing the MIC of the agents in combination by the MIC of the agent alone. FICI ≤ 0.5 is synergistic, 0.5 < x ≤ 4 is additive, and >4 is antagonistic.

[13] = tested on: E. coli 94474; assay type: cell-based, Escherichia coli; details: for MICUTBLP: UTBLP alone
Procedure: as §3

[14] = tested on: E. coli ATCC 25922; assay type: cell-based, Escherichia coli; details: for MICUTBLP: UTBLP alone
Procedure: as §3

[15] = tested on: E. faecalis ATCC 29212; assay type: cell-based, Enterococcus faecalis; details: for Interpretation: UTBLP + chloramphenicol; for MICUTBLP: UTBLP alone, plate with chloramphenicol; for MICUTBLP [MICcombo]: UTBLP in combination with chloramphenicol; for MICchloramphenicol [MICcombo]: chloramphenicol in combination with the UTBLP
Procedure: as §3

[16] = tested on: E. faecium ATCC 27270; assay type: cell-based, Enterococcus faecium; details: for Interpretation: UTBLP + chloramphenicol; for MICUTBLP: UTBLP alone, plate with chloramphenicol; for MICUTBLP [MICcombo]: UTBLP in combination with chloramphenicol; for MICchloramphenicol [MICcombo]: chloramphenicol in combination with the UTBLP
Procedure: as §3

[17] = UTBLP in combination with novobiocin
[18] = UTBLP in combination with rifampicin
[19] = novobiocin in combination with the UTBLP
[20] = rifampicin in combination with the UTBLP
[21] = UTBLP in combination with chloramphenicol
[22] = UTBLP in combination with niclosamide
[23] = chloramphenicol in combination with the UTBLP
[24] = niclosamide in combination with the UTBLP

CCCCCCCC(=O)N[C@@H](CCCCN)C(=O)NCCCN(CCCNC(=O)[C@H](CCCCN)NC(=O)CCCCCCC)CC(=O)N[C@@H](CCCCN)C(N)=O [UTBLP 1]
MIC [1]: >128 µg/mL
MIC [2]: >128 µg/mL
MIC [3]: 128 µg/mL (≈ 155 µM)
MIC [4]: 64 µg/mL (≈ 77.6 µM)
MIC [5]: > 128 µg/mL
MIC [6]: > 128 µg/mL
MIC [7]: > 128 µg/mL
MIC [8]: 32 µg/mL (≈ 38.8 µM)
MIC [9]: 32 µg/mL (≈ 38.8 µM)
Interpretation ([10]; UTBLP + novobiocin): Synergy (FICI ≤ 0.5 is synergistic)
Interpretation ([10]; UTBLP + rifampicin): Synergy (FICI ≤ 0.5 is synergistic)
MICUTBLP ([10]; plate with novobiocin): 64 µg/mL
MICUTBLP ([10]; plate with rifampicin): 64 µg/mL
MICUTBLP [MICcombo] [10, 17]: 4 µg/mL
MICUTBLP [MICcombo] [10, 18]: 4 µg/mL
MICantibiotic [MICcombo] [10, 19]: 0.25 µg/mL
MICantibiotic [MICcombo] [10, 20]: 0.125 µg/mL
Interpretation ([11]; UTBLP + novobiocin): Synergy (FICI ≤ 0.5 is synergistic)
Interpretation ([11]; UTBLP + rifampicin): Synergy (FICI ≤ 0.5 is synergistic)
MICUTBLP ([11]; plate with novobiocin): 128 µg/mL
MICUTBLP ([11]; plate with rifampicin): 128 µg/mL
MICUTBLP [MICcombo] [11, 17]: 8 µg/mL
MICUTBLP [MICcombo] [11, 18]: 8 µg/mL
MICantibiotic [MICcombo] [11, 19]: 0.125 µg/mL
MICantibiotic [MICcombo] [11, 20]: 0.063 µg/mL
Interpretation ([12]; UTBLP + novobiocin): Synergy (FICI ≤ 0.5 is synergistic)
Interpretation ([12]; UTBLP + rifampicin): Synergy (FICI ≤ 0.5 is synergistic)
MICUTBLP ([12]; plate with novobiocin): > 128 µg/mL
MICUTBLP ([12]; plate with rifampicin): > 128 µg/mL
MICUTBLP [MICcombo] [12, 17]: 8 µg/mL
MICUTBLP [MICcombo] [12, 18]: 8 µg/mL
MICantibiotic [MICcombo] [12, 19]: 0.5 µg/mL
MICantibiotic [MICcombo] [12, 20]: 0.031 µg/mL
Interpretation ([13]; UTBLP + novobiocin): Synergy (FICI ≤ 0.5 is synergistic)
Interpretation ([13]; UTBLP + rifampicin): Synergy (FICI ≤ 0.5 is synergistic)
MICUTBLP ([13]; plate with novobiocin): > 128 µg/mL
MICUTBLP ([13]; plate with rifampicin): > 128 µg/mL
MICUTBLP [MICcombo] [13, 17]: 8 µg/mL
MICUTBLP [MICcombo] [13, 18]: 8 µg/mL
MICantibiotic [MICcombo] [13, 19]: 4 µg/mL
MICantibiotic [MICcombo] [13, 20]: 0.125 µg/mL
Interpretation ([14]; UTBLP + chloramphenicol): Synergy (FICI ≤ 0.5 is synergistic)
Interpretation ([14]; UTBLP + niclosamide): Synergy (FICI ≤ 0.5 is synergistic)
Interpretation ([14]; UTBLP + novobiocin): Synergy (FICI ≤ 0.5 is synergistic)
Interpretation ([14]; UTBLP + rifampicin): Synergy (FICI ≤ 0.5 is synergistic)
MICUTBLP ([14]; plate with chloramphenicol): > 128 µg/mL
MICUTBLP ([14]; plate with niclosamide): > 128 µg/mL
MICUTBLP ([14]; plate with novobiocin): > 128 µg/mL
MICUTBLP ([14]; plate with rifampicin): > 128 µg/mL
MICUTBLP [MICcombo] [14, 21]: 32 µg/mL
MICUTBLP [MICcombo] [14, 22]: 8 µg/mL
MICUTBLP [MICcombo] [14, 17]: 8 µg/mL
MICUTBLP [MICcombo] [14, 18]: 8 µg/mL
MICantibiotic [MICcombo] [14, 23]: 1 µg/mL
MICantibiotic [MICcombo] [14, 24]: 0.5 µg/mL
MICantibiotic [MICcombo] [14, 19]: 0.25 µg/mL
MICantibiotic [MICcombo] [14, 20]: 0.125 µg/mL
Interpretation [15]: Additive (0.5 < x ≤ 4 is additive)
MICUTBLP [15]: 128 µg/mL
MICUTBLP [MICcombo] [15]: 16 µg/mL
MICchloramphenicol [MICcombo] [15]: 2 µg/mL
Interpretation [16]: Additive (0.5 < x ≤ 4 is additive)
MICUTBLP [16]: 64 µg/mL
MICUTBLP [MICcombo] [16]: 0.25 µg/mL
MICchloramphenicol [MICcombo] [16]: 8 µg/mL

CCCCCCCC(=O)N[C@@H](CCCCNC)C(=O)NCCCN(CCCNC(=O)[C@H](CCCCNC)NC(=O)CCCCCCC)CC(=O)N[C@@H](CCCCNC)C(N)=O [UTBLP 2]
MIC [1]: >128 µg/mL
MIC [2]: >128 µg/mL
MIC [3]: >128 µg/mL
MIC [4]: 128 µg/mL (≈ 148 µM)
MIC [5]: > 128 µg/mL
MIC [6]: > 128 µg/mL
MIC [7]: > 128 µg/mL
MIC [8]: 64 µg/mL (≈ 73.8 µM)
MIC [9]: 64 µg/mL (≈ 73.8 µM)
Interpretation ([10]; UTBLP + novobiocin): Synergy (FICI ≤ 0.5 is synergistic)
Interpretation ([10]; UTBLP + rifampicin): Synergy (FICI ≤ 0.5 is synergistic)
MICUTBLP ([10]; plate with novobiocin): > 128 µg/mL
MICUTBLP ([10]; plate with rifampicin): > 128 µg/mL
MICUTBLP [MICcombo] [10, 17]: 16 µg/mL
MICUTBLP [MICcombo] [10, 18]: 16 µg/mL
MICantibiotic [MICcombo] [10, 19]: 0.25 µg/mL
MICantibiotic [MICcombo] [10, 20]: 0.063 µg/mL
Interpretation ([11]; UTBLP + novobiocin): Synergy (FICI ≤ 0.5 is synergistic)
Interpretation ([11]; UTBLP + rifampicin): Synergy (FICI ≤ 0.5 is synergistic)
MICUTBLP ([11]; plate with novobiocin): > 128 µg/mL
MICUTBLP ([11]; plate with rifampicin): > 128 µg/mL
MICUTBLP [MICcombo] [11, 17]: 16 µg/mL
MICUTBLP [MICcombo] [11, 18]: 16 µg/mL
MICantibiotic [MICcombo] [11, 19]: 0.25 µg/mL
MICantibiotic [MICcombo] [11, 20]: 0.063 µg/mL
Interpretation ([12]; UTBLP + novobiocin): Synergy (FICI ≤ 0.5 is synergistic)
Interpretation ([12]; UTBLP + rifampicin): Synergy (FICI ≤ 0.5 is synergistic)
MICUTBLP ([12]; plate with novobiocin): > 128 µg/mL
MICUTBLP ([12]; plate with rifampicin): > 128 µg/mL
MICUTBLP [MICcombo] [12, 17]: 16 µg/mL
MICUTBLP [MICcombo] [12, 18]: 16 µg/mL
MICantibiotic [MICcombo] [12, 19]: 1 µg/mL
MICantibiotic [MICcombo] [12, 20]: 0.125 µg/mL
Interpretation ([13]; UTBLP + novobiocin): Synergy (FICI ≤ 0.5 is synergistic)
Interpretation ([13]; UTBLP + rifampicin): Synergy (FICI ≤ 0.5 is synergistic)
MICUTBLP ([13]; plate with novobiocin): > 128 µg/mL
MICUTBLP ([13]; plate with rifampicin): > 128 µg/mL
MICUTBLP [MICcombo] [13, 17]: 16 µg/mL
MICUTBLP [MICcombo] [13, 18]: 16 µg/mL
MICantibiotic [MICcombo] [13, 19]: 4 µg/mL
MICantibiotic [MICcombo] [13, 20]: 0.5 µg/mL
Interpretation ([14]; UTBLP + chloramphenicol): Additive (0.5 < x ≤ 4 is additive)
Interpretation ([14]; UTBLP + niclosamide): Synergy (FICI ≤ 0.5 is synergistic)
Interpretation ([14]; UTBLP + novobiocin): Synergy (FICI ≤ 0.5 is synergistic)
Interpretation ([14]; UTBLP + rifampicin): Synergy (FICI ≤ 0.5 is synergistic)
MICUTBLP ([14]; plate with chloramphenicol): > 128 µg/mL
MICUTBLP ([14]; plate with niclosamide): > 128 µg/mL
MICUTBLP ([14]; plate with novobiocin): > 128 µg/mL
MICUTBLP ([14]; plate with rifampicin): > 128 µg/mL
MICUTBLP [MICcombo] [14, 21]: 0.25 µg/mL
MICUTBLP [MICcombo] [14, 22]: 4 µg/mL
MICUTBLP [MICcombo] [14, 17]: 8 µg/mL
MICUTBLP [MICcombo] [14, 18]: 16 µg/mL
MICantibiotic [MICcombo] [14, 23]: 2 µg/mL
MICantibiotic [MICcombo] [14, 24]: 2 µg/mL
MICantibiotic [MICcombo] [14, 19]: 1 µg/mL
MICantibiotic [MICcombo] [14, 20]: 0.125 µg/mL
Interpretation [15]: Additive (0.5 < x ≤ 4 is additive)
MICUTBLP [15]: > 128 µg/mL
MICUTBLP [MICcombo] [15]: 0.25 µg/mL
MICchloramphenicol [MICcombo] [15]: 8 µg/mL
Interpretation [16]: Additive (0.5 < x ≤ 4 is additive)
MICUTBLP [16]: > 128 µg/mL
MICUTBLP [MICcombo] [16]: 0.25 µg/mL
MICchloramphenicol [MICcombo] [16]: 8 µg/mL
